Assay results: ChEMBL document CHEMBL5352429, “Designed symmetrical β-hairpin peptides for treating multidrug-resistant salmonella typhimurium infections” (Eur J Med Chem, 2022)
Values after ≈ are worked out from the molar mass of the structure shown. Active and inactive are the calls of the source. The calls are words filed in the database; no cut-off is given here. Peptide text beside a SMILES is read from it.

How the values were obtained:
[1] = (§1) Antibacterial activity against Salmonella wandsworth CICC 21504 incubated overnight by standard microtiter dilution method; assay type: functional, Salmonella enterica subsp. enterica serovar Wandsworth; settings: Salmonella enterica
[2] = (§2) Antibacterial activity against Salmonella dublin CICC 21497 incubated overnight by standard microtiter dilution method; assay type: functional, Salmonella enterica subsp. enterica serovar Dublin; settings: Salmonella enterica
[3] = test system: Lipopolysaccharide (LPS); experiment: Displacement of BODIPY-TR-cadaverine from Salmonella typhimurium LPS assessed as increase in fluorescence intensity by fluorescence spectrophotometric analysis; settings: Salmonella enterica subsp. enterica serovar Typhimurium; dose 0.25-8 µg/ml
[4] = test system: Staphylococcus aureus; experiment: Antibacterial activity against Staphylococcus aureus ATCC 29213 incubated overnight by standard microtiter dilution method; assay type: functional
[5] = test system: Staphylococcus aureus; experiment: Antibacterial activity against methicillin-resistant Staphylococcus aureus ATCC 43300 incubated overnight by standard microtiter dilution method; assay type: functional
[6] = test system: Salmonella typhimurium; experiment: Antibacterial activity against Salmonella typhimurium CICC 21913 incubated overnight by standard microtiter dilution method; assay type: functional, Salmonella enterica subsp. enterica serovar Typhimurium
[7] = test system: RAW264.7; experiment: Inhibition of LPS-stimulated IL-1beta production in mouse RAW264.7 cells at 1 to 128 ug/ml incubated for 24 hrs by ELISA analysis; assay type: functional, cell-based; settings: dose 1-128 µg/ml
[8] = test system: Salmonella typhimurium; experiment: Antibacterial activity against Salmonella typhimurium DT104 in the presence 25% inactivated mouse serum by MH broth based assay; assay type: functional, Salmonella enterica subsp. enterica serovar Typhimurium; settings: Salmonella enterica
[9] = test system: Salmonella typhimurium; experiment: Antibacterial activity against Salmonella typhimurium DT104 in the presence of FeCl3 by MH broth based assay; assay type: functional, Salmonella enterica subsp. enterica serovar Typhimurium; settings: Salmonella enterica
[10] = Hemolytic activity in human Red blood cells assessed as hemolysis at 128 ug/ml incubated for 1 hrs by absorbance based microplate reader analysis relative to control; assay type: toxicity, cell-based, Erythrocyte; settings: red blood cells (erythrocytes), at 128 µg/mL, read-out: Activity
[11] = test system: Candida albicans; experiment: Antifungal activity against Candida albicans ATCC 10231 incubated overnight by standard microtiter dilution method; assay type: functional
[12] = test system: RAW264.7; experiment: Inhibition of LPS-stimulated IL-8 production in mouse RAW264.7 cells at 1 to 128 ug/ml incubated for 24 hrs by ELISA analysis; assay type: functional, cell-based; settings: dose 1-128 µg/ml
[13] = test system: Enterococcus faecalis; experiment: Antibacterial activity against Enterococcus faecalis ATCC 29212 incubated overnight by standard microtiter dilution method; assay type: functional
[14] = test system: Salmonella typhimurium; experiment: Antibacterial activity against Salmonella typhimurium DT104 infected in mouse RAW264.7 cells assessed as reduction in bacterial cells at 1 times of MIC measured for 180 mins by MH agar based serial dilution method; assay type: functional, organism-based; settings: Salmonella enterica subsp. enterica serovar Typhimurium
[15] = (§3) Antibacterial activity against Salmonella enterica subsp. enterica serovar Choleraesuis ATCC 13312 incubated overnight by standard microtiter dilution method; assay type: functional
[16] = test system: Salmonella typhimurium; experiment: Antibacterial activity against Salmonella typhimurium DT104 ATCC 700408 incubated overnight by standard microtiter dilution method; assay type: functional, Salmonella enterica subsp. enterica serovar Typhimurium
[17] = test system: Salmonella typhimurium; experiment: Antibacterial activity against Salmonella typhimurium CICC 21483 incubated overnight by standard microtiter dilution method; assay type: functional, Salmonella enterica subsp. enterica serovar Typhimurium
[18] = (§4) Cytotoxicity against mouse RAW264.7 cells infected with Salmonella typhimurium DT104 assessed as cell viability at 1 times of MIC measured at 180 min by MTT assay; assay type: toxicity, cell-based; settings: RAW264.7 cells infected with Salmonella typhimurium DT104, read-out: Activity
[19] = test system: Salmonella typhimurium; experiment: Antibacterial activity against Salmonella typhimurium DT104 in the presence of NaCl by MH broth based assay; assay type: functional, Salmonella enterica subsp. enterica serovar Typhimurium; settings: Salmonella enterica
[20] = test system: Salmonella typhimurium; experiment: Antibacterial activity against Salmonella typhimurium DT104 in the presence of KCl by MH broth based assay; assay type: functional, Salmonella enterica subsp. enterica serovar Typhimurium; settings: Salmonella enterica
[21] = test system: Salmonella typhimurium; experiment: Antibacterial activity against Salmonella typhimurium DT104 in the presence 50% inactivated mouse serum by MH broth based assay; assay type: functional, Salmonella enterica subsp. enterica serovar Typhimurium; settings: Salmonella enterica
[22] = test system: Staphylococcus epidermidis; experiment: Antibacterial activity against methicillin-resistant Staphylococcus epidermidis ATCC 12228 incubated overnight by standard microtiter dilution method; assay type: functional
[23] = (§5) Antibacterial activity against Salmonella blockley CICC 21489 incubated overnight by standard microtiter dilution method; assay type: functional, Salmonella enterica subsp. enterica serovar Blockley; settings: Salmonella enterica
[24] = test system: RAW264.7; experiment: Inhibition of LPS-stimulated NO production in mouse RAW264.7 cells incubated for 24 hrs by Griess reagent based analysis; assay type: functional, cell-based; settings: dose 1-128 µg/ml
[25] = test system: Salmonella enterica subsp. enterica serovar Paratyphi B; experiment: Antibacterial activity against Salmonella paratyphi B CICC 21495 incubated overnight by standard microtiter dilution method; assay type: functional
[26] = test system: Erythrocyte; experiment: Hemolytic activity in human Red blood cells assessed as hemolysis incubated for 1 hrs by absorbance based microplate reader analysis; assay type: toxicity, cell-based
[27] = test system: Salmonella typhimurium; experiment: Antibacterial activity against Salmonella typhimurium DT104 in the presence of CaCl2 by MH broth based assay; assay type: functional, Salmonella enterica subsp. enterica serovar Typhimurium; settings: Salmonella enterica
[28] = test system: RAW264.7; experiment: Inhibition of LPS-stimulated TNF-alpha production in mouse RAW264.7 cells at 1 to 128 ug/ml incubated for 24 hrs by ELISA analysis; assay type: functional, cell-based; settings: dose 1-128 µg/ml
[29] = test system: Cell membrane; experiment: Induction of cytoplasmic membrane depolarization in Salmonella typhimurium DT104 assessed as increase in fluorescence intensity at 2 times of MIC incubated for 15 mins by DiSC3-5 dye based fluorescence method; assay type: subcellular; settings: Salmonella enterica subsp. enterica serovar Typhimurium
[30] = test system: Cell membrane; experiment: Disruption of membrane integrity in Salmonella typhimurium DT104 assessed as increase in fluorescence intensity at 0.5 to 2 times of MIC incubated for 15 mins by PI staining based flow cytometric analysis; assay type: subcellular; settings: Salmonella enterica subsp. enterica serovar Typhimurium
[31] = test system: Salmonella typhimurium; experiment: Antibacterial activity against Salmonella typhimurium DT104 in the presence of NH4Cl by MH broth based assay; assay type: functional, Salmonella enterica subsp. enterica serovar Typhimurium; settings: Salmonella enterica
[32] = test system: Salmonella typhimurium; experiment: Antibacterial activity against multi-drug resistant Salmonella typhimurium DT104 assessed as inhibition of bacterial growth at 0.5 to 2 times of MIC by MH agar based serial dilution method; assay type: functional, organism-based; settings: Salmonella enterica subsp. enterica serovar Typhimurium, time <= 120.0 min, TDE = time-dependent effect
[33] = test system: Salmonella typhimurium; experiment: Antibacterial activity against Salmonella typhimurium DT104 in the presence of MgCl2 by MH broth based assay; assay type: functional, Salmonella enterica subsp. enterica serovar Typhimurium; settings: Salmonella enterica
[34] = (§6) Antibacterial activity against Salmonella enterica subsp. enterica serovar Choleraesuis CICC 21493 incubated overnight by standard microtiter dilution method; assay type: functional
[35] = test system: Salmonella typhimurium; experiment: Antibacterial activity against multi-drug resistant Salmonella typhimurium DT104 assessed as inhibition of bacterial growth measured upto 120 mins by MH agar based serial dilution method; assay type: functional, organism-based; settings: Salmonella enterica subsp. enterica serovar Typhimurium
[36] = (§7) Antibacterial activity against Salmonella paratyphi C CICC 21512 incubated overnight by standard microtiter dilution method; assay type: functional, Salmonella enterica subsp. enterica serovar Paratyphi C; settings: Salmonella enterica
[37] = test system: Salmonella enteritidis; experiment: Antibacterial activity against Salmonella enteritidis CICC 21527 incubated overnight by standard microtiter dilution method; assay type: functional, Salmonella enterica subsp. enterica serovar Enteritidis
[38] = test system: Salmonella paratyphi; experiment: Antibacterial activity against Salmonella paratyphi A CICC 21501 incubated overnight by standard microtiter dilution method; assay type: functional, Salmonella enterica subsp. enterica serovar Paratyphi A
[39] = test system: Escherichia coli; experiment: Antibacterial activity against Escherichia coli O157:H7 CICC 21530 incubated overnight by standard microtiter dilution method; assay type: functional
[40] = test system: RAW264.7; experiment: as §4; assay type: toxicity, cell-based; settings: raw264.7, 3 h
[41] = test system: Salmonella enterica subsp. enterica serovar Wandsworth; experiment: as §1; assay type: functional
[42] = test system: Salmonella enterica subsp. enterica serovar Dublin; experiment: as §2; assay type: functional
[43] = test system: Salmonella typhimurium; experiment: Antibacterial activity against multi-drug resistant Salmonella typhimurium DT104 infected in ICR mouse model assessed as fecal shedding of bacteria at 2 mg/kg, ip administered for 3 days and measured on day 7; assay type: functional, organism-based; settings: Salmonella enterica subsp. enterica serovar Typhimurium, time 7.0 day
[44] = test system: Salmonella typhimurium; experiment: Antibacterial activity against multi-drug resistant Salmonella typhimurium DT104 infected in ICR mouse model assessed as reversal of body weight loss at 2 mg/kg, ip administered for 3 days and measured on day 7; assay type: functional, organism-based; settings: Salmonella enterica subsp. enterica serovar Typhimurium, time 7.0 day
[45] = test system: Salmonella enterica subsp. enterica serovar Choleraesuis; experiment: as §3; assay type: functional
[46] = test system: Salmonella typhimurium; experiment: Antibacterial activity against multi-drug resistant Salmonella typhimurium DT104 infected in ICR mouse model assessed as reversal of mouse vigour loss at 2 mg/kg, ip administered for 3 days and measured on day 7; assay type: functional, organism-based; settings: Salmonella enterica subsp. enterica serovar Typhimurium, time 7.0 day
[47] = test system: Salmonella enterica subsp. enterica serovar Blockley; experiment: as §5; assay type: functional
[48] = test system: Salmonella typhimurium; experiment: Antibacterial activity against multi-drug resistant Salmonella typhimurium DT104 infected in ICR mouse model assessed as reversal of mouse vitality loss at 2 mg/kg, ip administered for 3 days and measured on day 7; assay type: functional, organism-based; settings: Salmonella enterica subsp. enterica serovar Typhimurium, time 7.0 day
[49] = test system: Salmonella enterica subsp. enterica serovar Choleraesuis; experiment: as §6; assay type: functional
[50] = test system: Salmonella enterica subsp. enterica serovar Paratyphi C; experiment: as §7; assay type: functional
[51] = Salmonella enterica subsp. enterica serovar Typhimurium

For `CC(C)C[C@H](NC(=O)[C@H](CCCCN)NC(=O)[C@H](CC(C)C)NC(=O)[C@H](CCCCN)NC(=O)[C@H](CS)NC(=O)CNC(=O)[C@H](CO)NC(=O)[C@H](CCCCN)NC(=O)[C@@H](NC(=O)[C@H](CS)NC(=O)[C@H](CCCCN)NC(=O)[C@H](CC(C)C)NC(=O)[C@H](CCCCN)NC(=O)[C@@H](N)CC(C)C)[C@@H](C)O)C(N)=O` (H-LKLKCTKSGCKLKL-NH2), the MIC [1] was 16 µg/mL (≈ 10.2 µM), the MIC [2] was 8 µg/mL (≈ 5.12 µM) and the Activity [3] was “Dose-Dependent Effect”. It also gave an MIC [4] of 32 µg/mL (≈ 20.5 µM), an MIC [5] of 16 µg/mL (≈ 10.2 µM) and an MIC ([6]; Salmonella enterica) of 64 µg/mL (≈ 41 µM). For the same compound, the inhibition [7] was “Active”, the MIC [8] was 64 µg/mL (≈ 41 µM) and the MIC [9] was 128 µg/mL. The hemolysis at 1 h, 128 ug/ml [10] was under 10%, the MIC [11] was 4 µg/mL (≈ 2.56 µM) and the inhibition [12] was “Active”. The MIC [13] was 32 µg/mL (≈ 20.5 µM), the Activity [14] was “Active” and the MIC [15] was 1 µg/mL (≈ 0.64 µM). The MIC ([16]; Salmonella enterica) was 32 µg/mL (≈ 20.5 µM), the MIC ([17]; Salmonella enterica) was 16 µg/mL (≈ 10.2 µM) and the viability at 3 h, 1 times of MIC [18] was over 90%. The MIC [19] was 32 µg/mL, the MIC [20] was 16 µg/mL and the MIC [21] was 64 µg/mL (≈ 41 µM). For the same compound, the MIC [22] was 8 µg/mL (≈ 5.12 µM), the MIC [23] was 32 µg/mL (≈ 20.5 µM) and the inhibition [24] was “Dose-Dependent Effect”. The MIC [25] was 2 µg/mL (≈ 1.28 µM), the MHC [26] was over 128 µg/mL and the MIC [27] was 64 µg/mL. The inhibition [28] was “Active”, the Activity [29] was “Active” and the Activity [30] was “Active”. For the same compound, the MIC [31] was 16 µg/mL, the Activity [32] was “Tde” and the MIC [33] was 32 µg/mL. For the same compound, the MIC [34] was 16 µg/mL (≈ 10.2 µM), the Activity [35] was “Dose-Dependent Effect” and the MIC [36] was 2 µg/mL (≈ 1.28 µM). For the same compound, the MIC ([37]; Salmonella enterica) was 16 µg/mL (≈ 10.2 µM), the MIC ([38]; Salmonella enterica) was 4 µg/mL (≈ 2.56 µM) and the MIC [39] was 2 µg/mL (≈ 1.28 µM).

In the case of POLYMYXIN B [listing 1 of 2 here], the Activity [40] is reported as over 90% and the MHC [26] is reported as over 128 µg/mL.

For POLYMYXIN B [listing 2 of 2 here], the MIC [41] was 1 µg/mL, the MIC [42] was 2 µg/mL and the Activity [3] was “Dose-Dependent Effect”. It also gave an MIC [4] of 64 µg/mL, an MIC [5] of over 128 µg/mL and an MIC [6, 51] of 2 µg/mL. The Activity [43] was “inactive”, the MIC [11] was 64 µg/mL and the MIC [13] was 128 µg/mL. For the same compound, the Activity [44] was “inactive”, the MIC [45] was 1 µg/mL and the MIC [16, 51] was 4 µg/mL. The MIC [17, 51] was 2 µg/mL, the Activity [46] was “inactive” and the MIC [22] was 4 µg/mL. For the same compound, the MIC [47] was 1 µg/mL, the MIC [25] was 2 µg/mL and the Activity [48] was “inactive”. For the same compound, the MIC [49] was 4 µg/mL, the MIC [50] was 2 µg/mL and the MIC ([37]; Salmonella enterica subsp. enterica serovar Enteritidis) was 2 µg/mL. For the same compound, the MIC ([38]; Salmonella enterica subsp. enterica serovar Paratyphi A) was 4 µg/mL and the MIC [39] was 32 µg/mL.
